# Measured values as given in patent US9227977B2, “Phosphoinositide 3-kinase inhibitors” (RESPIVERT LTD., priority 2013, dated 2016).
# pIC50: −log10 of the molar value. Like-named read-outs stand apart in the source and are kept apart here.
# Legend:
# PI3K β = PI3K β (Homo sapiens (Human), UniProt P42338); assay: PI3K enzyme inhibition assay (HTRF TR-FRET); format: biochemical; conditions: read-out: PI3 Kinase Inhibition IC50 value at state isozyme, β
# Excerpt: (§1) The PI3K enzymes catalyse the phosphorylation of phosphatidylinositol 4,5-biphosphate (PIP2) to phosphatidylinositol 3,4,5-triphosphate (PIP3) in the presence of ATP and Mg^2+ ions. The PIP3 product can be detected by displacement of biotin-PIP3 from energy transfer complexes consisting of europium labelled anti-GST monoclonal antibody, a GST-tagged Pleckstrin homology (PH) domain, biotinylated PIP3 and streptavidin-allophycocyanin (APC) by the time-resolved fluorescence resonance energy transfer (TR-FRET) (HTRF®PI3K enzyme assay, Millipore). Excitation, at 330 nm, of europium in the complex results in an energy transfer to the APC and a fluorescent emission at 665 nm although europium itself emits at its characteristic wavelength of 620 nm. The PIP3 product formed by PI3K activity displaces biotin-PIP3 from the complex and results in a loss of energy transfer (decreasing signal).
# (§2) The compound to be tested was added, at the desired final concentrations, to a mixture of PIP2 substrate and a recombinant PI3K enzyme (either α, β or δ isoforms, ex Millipore, or γ isoform [p110γ+p101 construct], ex United States Biological, Swampscott, Mass.) and the mixture incubated for 2 hr at RT. Following this incubation period, ATP (10 μM) was added to the enzyme/compound/PIP2 substrate mixture and the resulting mixture was incubated for a further 30 min at RT. A stopping solution containing biotinylated PIP3 and the detection mix containing the GST tagged GRP1 pleckstrin homology (PH) domain and fluorophores were then added and the mixture was incubated at RT for 15-18 hr, prior to detection in a fluorescence microplate reader (Synergy 4, BioTek UK, Bedfordshire, UK).
# The results were calculated according to the formula: APC signal (emission at 665 nm)/europium signal (emission at 620 nm)×10^4. The percentage inhibition of each reaction was calculated relative to DMSO treated control, and the 50% inhibitory concentration (IC50 value) then calculated from the concentration-response curve.
# PI3K δ = PI3K δ (Homo sapiens (Human), UniProt O00329); assay: PI3K enzyme inhibition assay (HTRF TR-FRET); format: biochemical
# Chain of PI3K δ (O00329 whole entry, species assumed): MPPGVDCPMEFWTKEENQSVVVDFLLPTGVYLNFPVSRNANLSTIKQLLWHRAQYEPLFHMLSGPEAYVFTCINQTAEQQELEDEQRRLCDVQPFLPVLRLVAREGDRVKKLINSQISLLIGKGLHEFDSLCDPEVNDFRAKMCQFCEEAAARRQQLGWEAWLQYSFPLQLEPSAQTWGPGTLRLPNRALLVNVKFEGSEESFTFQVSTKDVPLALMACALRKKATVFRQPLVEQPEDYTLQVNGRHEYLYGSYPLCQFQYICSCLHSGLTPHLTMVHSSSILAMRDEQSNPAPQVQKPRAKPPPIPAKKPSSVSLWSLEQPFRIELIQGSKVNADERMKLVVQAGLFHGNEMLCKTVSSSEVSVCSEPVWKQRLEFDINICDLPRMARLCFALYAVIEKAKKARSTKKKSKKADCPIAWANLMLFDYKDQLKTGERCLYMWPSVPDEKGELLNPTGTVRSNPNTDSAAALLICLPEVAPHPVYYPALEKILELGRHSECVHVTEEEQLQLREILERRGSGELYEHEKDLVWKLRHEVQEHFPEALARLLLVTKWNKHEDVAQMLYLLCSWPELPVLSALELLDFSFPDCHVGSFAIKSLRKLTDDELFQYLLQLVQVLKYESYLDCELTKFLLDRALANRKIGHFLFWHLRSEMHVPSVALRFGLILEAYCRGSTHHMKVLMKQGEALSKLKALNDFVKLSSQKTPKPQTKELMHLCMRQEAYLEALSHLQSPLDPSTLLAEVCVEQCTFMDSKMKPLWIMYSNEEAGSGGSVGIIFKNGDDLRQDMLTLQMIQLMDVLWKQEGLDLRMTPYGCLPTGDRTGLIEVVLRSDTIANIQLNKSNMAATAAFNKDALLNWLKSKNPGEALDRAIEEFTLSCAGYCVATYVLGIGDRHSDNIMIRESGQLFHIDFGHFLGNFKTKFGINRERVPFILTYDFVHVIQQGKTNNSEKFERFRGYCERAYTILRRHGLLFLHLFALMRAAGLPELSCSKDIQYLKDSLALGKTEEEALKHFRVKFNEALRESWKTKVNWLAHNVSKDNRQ
# Chain of PI3K δ (P27986 whole entry partner, species assumed): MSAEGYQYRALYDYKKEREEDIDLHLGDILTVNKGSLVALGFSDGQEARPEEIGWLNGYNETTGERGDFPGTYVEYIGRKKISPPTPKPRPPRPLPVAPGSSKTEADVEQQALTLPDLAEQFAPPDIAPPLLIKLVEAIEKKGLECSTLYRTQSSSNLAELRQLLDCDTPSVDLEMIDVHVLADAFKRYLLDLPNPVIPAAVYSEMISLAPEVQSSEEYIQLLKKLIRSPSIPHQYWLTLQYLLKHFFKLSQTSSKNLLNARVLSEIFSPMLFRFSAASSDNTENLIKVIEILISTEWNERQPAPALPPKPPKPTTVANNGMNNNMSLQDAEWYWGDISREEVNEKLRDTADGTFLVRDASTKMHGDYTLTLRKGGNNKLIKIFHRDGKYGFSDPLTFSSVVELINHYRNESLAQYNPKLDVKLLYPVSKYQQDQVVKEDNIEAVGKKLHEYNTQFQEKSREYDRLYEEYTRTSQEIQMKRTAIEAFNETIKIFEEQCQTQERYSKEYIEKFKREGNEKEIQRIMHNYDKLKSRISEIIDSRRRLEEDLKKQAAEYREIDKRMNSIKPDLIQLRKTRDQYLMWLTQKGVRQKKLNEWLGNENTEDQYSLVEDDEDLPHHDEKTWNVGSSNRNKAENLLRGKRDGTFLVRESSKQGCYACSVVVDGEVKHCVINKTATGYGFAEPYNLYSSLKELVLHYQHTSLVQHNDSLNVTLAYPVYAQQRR
# Excerpt: as §1
# as §2, with “Following this incubation period, ATP (10 μM) was added to the enzyme/compound/PIP2 substrate mixture and the resulting mixture was incubated for a further 30 min at RT.” left out
# (§3) The results were calculated according to the formula: APC signal (emission at 665 nm)/europium signal (emission at 620 nm)×10^4.
# PI3K α = PI3K α (Homo sapiens (Human), UniProt P42336); assay: PI3K enzyme inhibition assay (HTRF TR-FRET); format: biochemical
# Chain of PI3K α (P42336 whole entry, species assumed): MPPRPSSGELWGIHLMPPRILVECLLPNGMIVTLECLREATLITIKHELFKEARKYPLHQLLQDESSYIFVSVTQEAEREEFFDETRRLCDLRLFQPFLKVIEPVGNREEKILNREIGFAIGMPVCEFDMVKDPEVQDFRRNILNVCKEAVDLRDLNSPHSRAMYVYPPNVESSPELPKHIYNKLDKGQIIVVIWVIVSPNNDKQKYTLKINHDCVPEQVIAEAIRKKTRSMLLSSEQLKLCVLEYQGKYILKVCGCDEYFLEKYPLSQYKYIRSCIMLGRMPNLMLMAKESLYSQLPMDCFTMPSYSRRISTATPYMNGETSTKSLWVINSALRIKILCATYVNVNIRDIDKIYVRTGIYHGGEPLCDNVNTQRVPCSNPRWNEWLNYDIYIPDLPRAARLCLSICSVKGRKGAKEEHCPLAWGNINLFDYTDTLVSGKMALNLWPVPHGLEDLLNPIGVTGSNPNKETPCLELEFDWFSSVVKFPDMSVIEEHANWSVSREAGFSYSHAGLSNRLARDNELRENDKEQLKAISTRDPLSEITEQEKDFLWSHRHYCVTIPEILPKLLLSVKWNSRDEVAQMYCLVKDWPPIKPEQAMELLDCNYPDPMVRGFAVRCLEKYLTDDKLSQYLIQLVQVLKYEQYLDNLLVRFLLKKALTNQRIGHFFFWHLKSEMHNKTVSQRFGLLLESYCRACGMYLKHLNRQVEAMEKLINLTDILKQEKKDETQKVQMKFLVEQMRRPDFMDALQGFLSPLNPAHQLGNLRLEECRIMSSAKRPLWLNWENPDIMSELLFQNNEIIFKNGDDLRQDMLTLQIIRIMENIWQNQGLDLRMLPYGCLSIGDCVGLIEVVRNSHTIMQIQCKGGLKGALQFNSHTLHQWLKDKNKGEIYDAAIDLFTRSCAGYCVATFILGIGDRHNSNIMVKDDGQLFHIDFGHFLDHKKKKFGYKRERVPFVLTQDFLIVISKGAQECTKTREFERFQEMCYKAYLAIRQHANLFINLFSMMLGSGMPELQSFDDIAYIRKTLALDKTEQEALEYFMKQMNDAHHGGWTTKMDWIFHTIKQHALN
# Chain of PI3K α (P27986 whole entry partner, species assumed): as the sequence (P27986 whole entry partner, species assumed) above
# Excerpt: as §1
# as §2, with “Following this incubation period, ATP (10 μM) was added to the enzyme/compound/PIP2 substrate mixture and the resulting mixture was incubated for a further 30 min at RT.” left out
# as §3
# PI3K γ = PI3K γ (Homo sapiens (Human), UniProt P48736); assay: PI3K enzyme inhibition assay (HTRF TR-FRET); format: biochemical
# Chain of PI3K γ (P48736 whole entry, species assumed): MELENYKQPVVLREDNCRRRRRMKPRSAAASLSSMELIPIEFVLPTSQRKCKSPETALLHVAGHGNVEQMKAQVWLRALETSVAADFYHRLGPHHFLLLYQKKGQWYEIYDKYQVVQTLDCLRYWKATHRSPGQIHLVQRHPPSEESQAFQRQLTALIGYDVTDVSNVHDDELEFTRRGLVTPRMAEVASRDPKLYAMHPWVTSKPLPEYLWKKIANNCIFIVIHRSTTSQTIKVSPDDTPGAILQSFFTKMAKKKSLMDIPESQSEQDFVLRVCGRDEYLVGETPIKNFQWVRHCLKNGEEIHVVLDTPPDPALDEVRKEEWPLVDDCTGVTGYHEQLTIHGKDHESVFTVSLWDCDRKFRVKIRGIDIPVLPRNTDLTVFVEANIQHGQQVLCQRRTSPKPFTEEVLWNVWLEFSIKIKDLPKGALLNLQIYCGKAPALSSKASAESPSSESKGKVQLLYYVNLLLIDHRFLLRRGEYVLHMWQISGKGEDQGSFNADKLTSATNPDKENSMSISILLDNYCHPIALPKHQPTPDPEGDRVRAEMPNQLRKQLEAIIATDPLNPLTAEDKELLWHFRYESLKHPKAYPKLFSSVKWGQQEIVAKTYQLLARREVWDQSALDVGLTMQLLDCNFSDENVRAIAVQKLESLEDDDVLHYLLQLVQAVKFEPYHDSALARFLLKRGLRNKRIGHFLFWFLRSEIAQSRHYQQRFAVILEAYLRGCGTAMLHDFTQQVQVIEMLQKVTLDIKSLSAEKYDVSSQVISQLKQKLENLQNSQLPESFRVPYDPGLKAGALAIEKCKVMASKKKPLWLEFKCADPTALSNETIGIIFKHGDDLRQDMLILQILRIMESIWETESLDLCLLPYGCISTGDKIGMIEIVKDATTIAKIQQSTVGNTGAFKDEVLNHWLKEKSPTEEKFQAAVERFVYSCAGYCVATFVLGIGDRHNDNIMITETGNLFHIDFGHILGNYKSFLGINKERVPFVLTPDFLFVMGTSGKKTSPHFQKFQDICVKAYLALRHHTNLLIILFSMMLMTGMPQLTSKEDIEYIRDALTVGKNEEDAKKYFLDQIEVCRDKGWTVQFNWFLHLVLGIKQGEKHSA
# Chain of PI3K γ (Q8WYR1 whole entry partner, species assumed): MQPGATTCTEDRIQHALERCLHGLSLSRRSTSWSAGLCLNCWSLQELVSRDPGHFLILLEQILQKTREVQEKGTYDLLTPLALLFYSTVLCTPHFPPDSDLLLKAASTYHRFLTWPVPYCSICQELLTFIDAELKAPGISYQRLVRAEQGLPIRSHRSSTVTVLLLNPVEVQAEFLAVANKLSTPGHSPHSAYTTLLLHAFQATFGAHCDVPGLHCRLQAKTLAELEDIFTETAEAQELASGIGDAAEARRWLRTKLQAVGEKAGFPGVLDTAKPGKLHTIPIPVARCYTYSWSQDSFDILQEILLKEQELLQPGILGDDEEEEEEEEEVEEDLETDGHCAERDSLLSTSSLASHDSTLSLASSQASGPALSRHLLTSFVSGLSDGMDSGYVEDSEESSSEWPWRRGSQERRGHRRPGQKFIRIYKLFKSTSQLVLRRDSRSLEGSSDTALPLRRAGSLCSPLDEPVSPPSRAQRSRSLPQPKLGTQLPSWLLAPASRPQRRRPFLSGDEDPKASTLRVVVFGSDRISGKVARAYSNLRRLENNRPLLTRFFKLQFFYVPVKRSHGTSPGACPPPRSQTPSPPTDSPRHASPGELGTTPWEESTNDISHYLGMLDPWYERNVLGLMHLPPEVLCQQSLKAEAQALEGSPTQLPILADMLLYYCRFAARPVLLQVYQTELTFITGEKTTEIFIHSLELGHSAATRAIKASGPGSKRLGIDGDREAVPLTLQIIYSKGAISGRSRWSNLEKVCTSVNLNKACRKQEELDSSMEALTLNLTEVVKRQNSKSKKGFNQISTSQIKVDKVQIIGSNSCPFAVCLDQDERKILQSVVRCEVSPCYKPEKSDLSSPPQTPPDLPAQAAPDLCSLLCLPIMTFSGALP
# Excerpt: as §1
# as §2, with “Following this incubation period, ATP (10 μM) was added to the enzyme/compound/PIP2 substrate mixture and the resulting mixture was incubated for a further 30 min at RT.” left out
# as §3
# d-U937 cells = assay: MTT assay, cell viability; format: cell-based, human; conditions: 10 μg/mL
# Protocol: PMA-differentiated U937 cells were pre-incubated with test compound (10 μg/mL) or vehicle for 4 hr in 5% FCS or 10% FCS for 24 hr. The supernatant was replaced with new media (200 μL) and MTT stock solution (10 μL, 5 mg/mL) was added to each well. After 1 hr incubation, the media were removed, 200 μL of DMSO was added to each well and the plates were shaken lightly for 1 hr prior to reading the absorbance at 550 nm. The percentage loss of cell viability was calculated for each well relative to vehicle (0.5% DMSO)-treatment.
# [1] = tested on: cigarette smoke-induced cell accumulation and biomarkers in murine BALF; assay: Cigarette smoke model; format: in vivo, mouse; conditions: 0.3-10 mg/kg, p.o.
# [2] = tested on: cigarette smoke-induced cell accumulation and biomarkers in murine BALF; assay: Cigarette smoke model; format: in vivo, mouse; conditions: dose used for co-administration
# Protocol: A/J mice (males, 5 weeks old) were exposed to cigarette smoke (4% cigarette smoke, diluted with compressed air) for 30 min/day for 11 days using a Tobacco Smoke Inhalation Experiment System for small animals (Model SIS-CS; Sibata Scientific Technology, Tokyo, Japan). Test substances were administered once daily for 3 days after the final cigarette smoke exposure (intra-nasal dose comprising 35 μL of solution in 50% DMSO/isotonic saline).
# At 12 hr after administration of the last dose, animals were anesthetized, the trachea was cannulated and bronchial alveolar lavage (BAL) was carried out by the instillation into and then withdawal from the lungs, of PBS (100 mL/kg). Total cell numbers in the BALF samples were measured using a haemocytometer under a phase-contrast microscope. The proportions of alveolar macrophages and neutrophils were determined by FACS analysis using anti-mouse MOMA2-FITC (macrophage) or anti-mouse 7/4 (neutrophil).
# Cells were suspended in PBS and were incubated with anti-MOMA2-FITC (2 μg/mL, Catalogue no SM065F, Acris Antibodies GmbH, Herford, Germany) or anti-7/4-FITC (2 μg/mL, Catalogue no CL050F, Acris Antibodies GmbH, Herford, Germany) for 30 min at 30° C., and also counterstained with propidium iodide (2 μg/mL) to allow exclusion of necrotic cells. The cells were washed with PBS, and transferred to FACS tubes. Samples was set in a flow cytometer (ALTRA II; Beckman Coulter Japan, Tokyo, Japan), and a single-parameter FL2 [PMT2] (FITC) histogram with log x-axis was plotted to illustrate relative intensity of FITC.
# Data files are stored for subsequent analysis using Kaluza analysis software (ver. 1.2) to calculate the proportion of each cell type. The levels of CXCL1(KC), MCP1, TNFα, IL-17 or osteopontin in BALF were determined using Quentikine® mouse KC, MCP1, TNFα, IL-17 or osteopontin ELISA kit (R&D systems, Inc., Minneapolis, Minn., USA). The presence of malondialdehyde was measured using OxiSelect® TBARS Assay Kit (MDA Quantitation; Cell Biolabs Inc, San Diego, Calif., USA).
smiles,measurement,setting,value
"Nc1ncnc2c1c(-c1cc(O)cc(F)c1)nn2Cc1nc2cccc(C#CCOCCOCCO)c2c(=O)n1Cc1ccccc1C(F)(F)F [Compound (Ia), 2-((4-Amino-3-(3-fluoro-5-hydroxyphenyl)-1H-pyrazolo[3,4-d]pyrimidin-1-yl)methyl)-5-(3-(2-(2-hydroxyethoxy)ethoxy)prop-1-yn-1-yl)-3-(2-(trifluoromethyl)benzyl)quinazolin-4(3H)-one]",pIC50,PI3K β,< 4.85
same,inhibition of PI3K δ compared with compound of formula (I) (in words),PI3K δ,significantly less active
same,pIC50,"PI3K δ; read-out: PI3 Kinase Inhibition IC50 value at state isozyme, δ",7.77
same,pIC50,"PI3K α; read-out: PI3 Kinase Inhibition IC50 value at state isozyme, α",< 4.85
same,inhibition of PI3K γ compared with compound of formula (I) (in words),PI3K γ,significantly less active
same,pIC50,"PI3K γ; read-out: PI3 Kinase Inhibition IC50 value at state isozyme, γ",6.24
same,Cell Viability MTT Assay in d-U937 cells at 4 hr,d-U937 cells; 4 hr,−ve (−ve indicates a value of <30% inhibition at 10 μg/mL)
same,Cell Viability MTT Assay in d-U937 cells at 24 hr,d-U937 cells; 24 hr,−ve (−ve indicates a value of <30% inhibition at 10 μg/mL)
C[C@@H]1C[C@H]2[C@@H]3CCC4=CC(=O)C=C[C@]4(C)[C@@]3(F)[C@@H](O)C[C@]2(C)[C@@]1(O)C(=O)CO [dexamethasone],activity in cigarette smoke model (in words),[1],inactive
"CCC(=O)O[C@]1(C(=O)SCF)[C@H](C)C[C@H]2[C@@H]3C[C@H](F)C4=CC(=O)C=C[C@]4(C)[C@@]3(F)[C@@H](O)C[C@@]21C [fluticasone propionate, reference compound]",effect as monotherapy in cigarette smoke model (in words),[2],lacks any significant effect
"COCCOCCOCC#Cc1cccc2nc(Cn3nc(-c4cccc(O)c4)c4c(N)ncnc43)n(Cc3ccccc3F)c(=O)c12 [Example 50, 2-((4-amino-3-(3-hydroxyphenyl)-1H-pyrazolo[3,4-d]pyrimidin-1-yl)methyl)-3-(2-fluorobenzyl)-5-(3-(2-(2-methoxyethoxy)ethoxy)prop-1-ynyl) quinazolin-4(3H)-one, reference compound]",pIC50,"PI3K δ; read-out: IC50 Values for PI3K inhibition at isozyme indicated, PI3K δ",8.24
same,pIC50,"PI3K α; read-out: IC50 Values for PI3K inhibition at isozyme indicated, PI3K α",6.19
same,pIC50,"PI3K γ; read-out: IC50 Values for PI3K inhibition at isozyme indicated, PI3K γ",6.92
